Results: paper PMC8162438, “Cancer cell-selective modulation of mitochondrial respiration and metabolism by potent organogold(III) dithiocarbamates” (Chemical Science, 2020)

What was measured:
MDA-MB-231 = test: Apoptosis analysis, Annexin V-FITC/PI FACS; type: cell-based; settings: MDA-MB-231, 10 μM, 4 h, extrapolated from Fig. 10B
From the text: Apoptosis is a common cell death pathway for chemotherapeutics which can be characterized by distinct morphological features and biochemical mechanisms.[88,89] Apoptosis occurs normally in healthy cells to maintain a healthy population of cells during aging or development of tissues. Some transition metal-based drugs can trigger apoptosis due to […] of p53 dependant pathway (a tumour suppressor gene).[90,91] Populations of apoptotic cells can be determined by containing cells with Annexin V and PI.[92,93] Cells undergoing apoptosis contain ample amount of phosphatidylserine (PS) which can be bound by Annexin V. The Annexin is then labelled with FITC, a green fluorogenic dye which can be visualized by fluorescence activated cell sorting (FACS). PI is used to stain damaged DNA to distinguish apoptotic from necrotic cells. […]
media. […] The plates were read using a Genios plate reader (λ = 570 nm). […]
Cell Viability of 1a-1e and 2a-2e (Suspended Cell Lines). The cell viability of 2a was determined in K562. […]
10% CO 2. […] To each designated well was then added 20 µL of CellTiter-Glo solution and orbitally shaken for 5 minutes and the luminescence (1000 ms integration and 150 ms gain) acquired on a Genios plate reader. […]

MRC5 = test: Seahorse XF96 mitochondria stress test (OCR), MRC5; type: cell-based, human; settings: MRC5, 0.1–3 μM

In the case of `C[N+](C)=C1[S][Au-2]2([S]1)[c]1ccccc1Cc1cccc[n+]12.F[P-](F)(F)(F)(F)F` (centres unmarked) [2a], the “Increase in apoptotic cells in comparison to control” value (MDA-MB-231) is reported as 36% and the “Effect on OCR of MRC5” value (MRC5) is reported as “did not impact the OCR”.
